Measurements published in patent publication US7232559B1, “Diagnostic agents for pancreatic exocrine function” (Tokyo Gas Company Limited, priority 1999, dated 2007).
Where “and” joins values, the source holds several entries; their conditions need not be identical. Equal values may be shown once. Primed or numbered codes have the meaning given here. 13C‑Gly = glycine labeled with carbon-13 (13C); Bz′ = not defined here

How the values were obtained:
Wistar male rat pancreas = assay: Model of chronic pancreatitis by oleic acid injection into the pancreatic duct: enzyme contents; format: in vivo
Protocol: A model of chronic pancreatitis in rats were prepared by injecting oleic acid into the pancreatic duct (Mundlos et al., Pancreas 1:29 (1986)). After overnight fast, a Wistar male rat of 5 weeks old was anesthetized by intraperitoneal administration of Nembutal (50 mg/kg). The abdominal wall was shaved and the rat was fixed supinely on an operating table. An Isodine solution was applied to sterilize, and a 3 to 4 cm midline incision was made on the abdomen. The duodenum and the pancreas were drawn out and a 25 G needle was pierced through the duodenal wall. A polyethylene cannula (PE-10) was inserted through the pierced hole into the duodenum and further inserted into the common bile duct by about 5 mm from the papilla. The inserted cannula was fixed by a microclip. Further, the biliary duct was closed by a microclip in order to prevent oleic acid from flowing into the liver. Oleic acid (50 μl) was injected at a rate of 20 μl/min by a microsyringe pump. After the injection was completed, the rat was allowed to stand for 2 minutes so that the oleic acid was distributed throughout the pancreas. The microclips and cannula were removed and the duodenum was returned. The endothelium was sutured with silk thread (Nescosuture silk suture thread 3-0, Nihon Shoji KK) and the outer skin was sutured with a skin stapler (Appose ULC, No. 8034-12, 5.7×3.8 mm). As a control, only laparotomy was carried out. These rats subjected to the operation were kept under free intake of standard food and water at 23° C., relative humidity of 55% until use. After injecting oleic acid into the pancreatic duct and being kept for 3 weeks, these rats (oleic acid-injected rats) were subjected to measurement of amylase in the blood, and to quantitative determination of chymotrypsinogen and amylase contents in the pancreas (FIG. 1). An extraction buffer (20 mM HEPPS+Na, pH 8.0, 100 mM KCl, 0.5% (w/v) Triton X-100) was added to the removed pancreas to the total volume of 10 ml. The material was subjected to ultrasonic disruption (Bionic 7250, Seiko, Sonics & Materials) and centrifuged at 10,000×g for 20 minutes to yield a pancreatic extract as a supernatant. […] After the reaction, 10 μl of 100% (W/V) TCA solution was added and centrifuged at 15,000×g for 5 minutes and the PABA in the supernatant was quantitatively determined using a PABA measuring kit (Eisai). The amylase activity in the pancreatic extract was measured using Fuji Dri-Chem. Both units of activity (U) show μ mole release/min.

[1] = test system: chronic pancreatitis rats and control (normal) rats; assay: ^13C-breath test (Δ^13C in exhaled CO2 after oral administration); format: in vivo, rat; conditions: for Δ^13C (‰) value at 30 minutes after the administration (group mean): 30 mg/kg oral; for Δ^13C (‰) (mean) value at 15 minutes after the administration: 420 mg/kg oral
Protocol: A model of chronic pancreatitis in rats were prepared by injecting oleic acid into the pancreatic duct (Mundlos et al., Pancreas 1:29 (1986)). After overnight fast, a Wistar male rat of 5 weeks old was anesthetized by intraperitoneal administration of Nembutal (50 mg/kg). The abdominal wall was shaved and the rat was fixed supinely on an operating table. An Isodine solution was applied to sterilize, and a 3 to 4 cm midline incision was made on the abdomen. The duodenum and the pancreas were drawn out and a 25 G needle was pierced through the duodenal wall. A polyethylene cannula (PE-10) was inserted through the pierced hole into the duodenum and further inserted into the common bile duct by about 5 mm from the papilla. The inserted cannula was fixed by a microclip. Further, the biliary duct was closed by a microclip in order to prevent oleic acid from flowing into the liver. Oleic acid (50 μl) was injected at a rate of 20 μl/min by a microsyringe pump. After the injection was completed, the rat was allowed to stand for 2 minutes so that the oleic acid was distributed throughout the pancreas. The microclips and cannula were removed and the duodenum was returned. The endothelium was sutured with silk thread (Nescosuture silk suture thread 3-0, Nihon Shoji KK) and the outer skin was sutured with a skin stapler (Appose ULC, No. 8034-12, 5.7×3.8 mm). As a control, only laparotomy was carried out. These rats subjected to the operation were kept under free intake of standard food and water at 23° C., relative humidity of 55% until use.
The rat of 9 weeks old was fixed without anesthesia in a rat holder for a microwave irradiation apparatus. The breath was collected at a rate of about 100 to 300 ml/min using a stroke pump (Variable Stroke Pump VS-500, Shibata Kagaku Kogyo) and introduced directly to a flow cell of a ^13CO2 analyzer EX-130S (Nihon Bunko). A Perma Pure drier (MD-050-12P, Perma Pure INC.) was set between the rat holder and stroke pump to remove out water vapor in the breath. […]
Output data from the ^13CO2 analyzer were AD converted and put into a personal computer (Apple Power Macintosh 8500). Using a data processing soft ware Lab VIEW (National Instruments), 10 data points at every 100 msec were integrated and averaged in an interval of 5 seconds and converted to ^13C atom %, Δ^13C (‰), and CO2 concentration (%) In this manner, the ^13C breath test was continuously carried out. […] CO2 concentration in the collected breath was held at 3±0.5%.
Δ^13C (‰) was calculated from the ^13C concentration in the exhaled CO2 at each time point (^13C tmin) and the ^13C concentration in standard CO2 (^13C std) according to the following equation: Δ^13C (‰)=[(^13C tmin−^13C 0min)/^13C std]×1000

[2] = molecular target: T1, chymotrypsin (from bovine pancreas) (Bos taurus, UniProt P00766); assay: Degradation by chymotrypsin (leucine released, ninhydrin reaction); format: biochemical
T1 construct: purchased Worthington Biochemical Corporation #1432, Lot 37A906; host or cells: bovine pancreas (natural source)
Protocol: Bz-DL-Phe-(^13C-Leu) was reacted with chymotrypsin and the degradation product, leucine, generated upon action of chymotrypsin was quantitatively determined by ninhydrin reaction. The reaction was carried out in 20 mM HEPPS-Na (pH 8.0), 23 mM Bz-DL-Phe-(^13C-Leu), 0.16 mg/ml chymotrypsin (from bovine pancreas, Worthington Biochemical Corporation, #1432, Lot 37A906) at 37° C. for 15 minutes. After reaction, 50 μl of citrate buffer (citric acid monohydrate), 20 μl of ninhydrin solution (50 mg/ml solution in methyl cellosolve) and 100 μl of KCN solution (0.01 M aqueous KCN solution diluted 50 times with methyl cellosolve) were added to 100 μl of the reaction mixture and heated at 100° C. for 15 minutes. After cooling the ninhydrin reaction mixture to room temperature, 150 μl of 60% (V/V) ethanol was added to 100 μl of the ninhydrin reaction mixture and stirred followed by determination of an absorbance at a wave length of 570 nm. An experiment wherein all the reactions that were carried out without adding Bz-DL-Phe-(^13C-Leu) was taken as a “blank,” and leucine was used as a standard.

[3] = oleic acid-injected rats (n=17), 50 μl into pancreatic duct, 3 weeks after
[4] = chronic pancreatitis rats #1-#4, 250 mg/kg oral
[5] = chronic pancreatitis rats (n=4), 250 mg/kg oral
[6] = normal rats #1-#4, 250 mg/kg oral
[7] = normal rats (n=4), 250 mg/kg oral

CCCCCCCC/C=C\CCCCCCCC(=O)O [oleic acid]
rats evaluated to have pancreatitis (chymotrypsinogen content below mean−2SD of control) (Wistar male rat pancreas; 12 rats among 17 oleic acid-injected rats): 70% | blood amylase concentration (Wistar male rat pancreas; oleic acid-injected rats (n=17), 3 weeks after): 2137 U | amylase content in the pancreas (Wistar male rat pancreas; [3]): 789 U | chymotrypsinogen content in the pancreas (Wistar male rat pancreas; [3]): 8.1 U

Arg-(^13C-Leu)
Δ^13C (‰) at 30 min, individual rat ([1]; chronic pancreatitis rats #1-#4, 30 mg/kg oral): 3.74 ‰ and 6.97 ‰ and 4.87 ‰ and 1.92 ‰ | Δ^13C (‰) value at 30 minutes after the administration (group mean) ([1]; chronic pancreatitis rats (n=4)): 4.37±1.83 ‰ | Δ^13C (‰) at 30 min, individual rat ([1]; normal rats #1-#4, 30 mg/kg oral): 13.74 ‰ and 15.37 ‰ and 10.08 ‰ and 10.30 ‰ | Δ^13C (‰) value at 30 minutes after the administration (group mean) ([1]; normal rats (n=4)): 12.37±2.26 ‰

Bz-Ala-Ala-Ala-Ala-(^13C-Gly)-Phe-Leu ({Bz′}-AAAA-{13C‑Gly-Phe-Leu})
Δ^13C (‰) at 15 min, individual rat ([1]; chronic pancreatitis rats #1-#2, 420 mg/kg oral): −1.90 ‰ and 3.12 ‰ | Δ^13C (‰) (mean) value at 15 minutes after the administration ([1]; chronic pancreatitis rats (n=2)): 0.61 ‰ | Δ^13C (‰) at 15 min, individual rat ([1]; normal rats #1-#2, 420 mg/kg oral): 23.47 ‰ and 43.16 ‰ | Δ^13C (‰) (mean) value at 15 minutes after the administration ([1]; normal rats (n=2)): 33.32 ‰

Bz-Arg-(^13C-Leu).HCl
Δ^13C (‰) at 20 min, individual rat ([1]; chronic pancreatitis rats #1-#3, 100 mg/kg oral): 3.69 ‰ and 11.25 ‰ and −5.79 ‰ | Δ^13C (‰) value at 20 minutes after the administration (group mean) ([1]; chronic pancreatitis rats (n=3), 100 mg/kg oral): 3.05±6.97 ‰ | Δ^13C (‰) at 20 min, individual rat ([1]; normal rats #1-#3, 100 mg/kg oral): 79.91 ‰ and 51.94 ‰ and 74.46 ‰ | Δ^13C (‰) value at 20 minutes after the administration (group mean) ([1]; normal rats (n=3), 100 mg/kg oral): 68.77±12.01 ‰

Bz-DL-Phe-(^13C-Leu)
rate of degradation ([2]; 23 mM substrate, 0.16 mg/ml chymotrypsin, 20 mM HEPPS-Na pH 8.0, 37° C., 15 minutes): 1.72 nmole/mg chymotrypsin/min | substrate for chymotrypsin ([2]; same reaction, leucine produced): could be a substrate for chymotrypsin | time course of Δ^13C (‰) ([1]; 7 cases of the chronic pancreatitis rats (n=8), 250 mg/kg oral): the degree of increase was small and continued to slowly increase for 30 minutes

Bz-L-Phe-(^13C-Leu)
Δ^13C (‰) at 10 min, individual rat [1, 4]: 1.61 ‰ and 3.28 ‰ and 17.21 ‰ and 5.77 ‰ | Δ^13C (‰) value at 10 minutes after the administration (group mean) [1, 5]: 6.97±6.09 ‰ | Δ^13C (‰) at 10 min, individual rat [1, 6]: 60.25 ‰ and 165.37 ‰ and 203.16 ‰ and 31.29 ‰ | Δ^13C (‰) value at 10 minutes after the administration (group mean) [1, 7]: 115.02±71.26 ‰

Bz-Tyr-(^13C-Leu)
Δ^13C (‰) at 20 min, individual rat [1, 4]: 8.76 ‰ and 3.58 ‰ and 2.44 ‰ and −0.15 ‰ | Δ^13C (‰) value at 20 minutes after the administration (group mean) [1, 5]: 3.66±3.24 ‰ | Δ^13C (‰) at 20 min, individual rat [1, 6]: 65.76 ‰ and 21.02 ‰ and 80.02 ‰ and 111.32 ‰ | Δ^13C (‰) value at 20 minutes after the administration (group mean) [1, 7]: 69.53±32.50 ‰
